Counter-ions that a name gives are not always drawn. Like-named read-outs stand apart in the source and are kept apart here.
Biological target: T1, LTD4 receptor (Cavia porcellus, UniProt Q2NNR5)
T1 construct: guinea-pig lung membranes; from tissue; host or cells: guinea-pig lung membranes
T1 sequence (Q2NNR5 1-340): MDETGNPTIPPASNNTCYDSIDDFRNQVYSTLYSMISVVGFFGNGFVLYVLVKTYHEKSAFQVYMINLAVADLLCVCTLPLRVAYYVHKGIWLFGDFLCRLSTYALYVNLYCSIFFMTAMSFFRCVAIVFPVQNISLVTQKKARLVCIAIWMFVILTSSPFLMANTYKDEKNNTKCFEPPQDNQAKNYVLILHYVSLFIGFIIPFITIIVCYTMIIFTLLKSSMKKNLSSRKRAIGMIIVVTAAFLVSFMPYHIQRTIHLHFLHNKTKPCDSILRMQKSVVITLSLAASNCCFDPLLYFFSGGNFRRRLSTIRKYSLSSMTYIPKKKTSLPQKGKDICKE
Test: [3H]LTD4 competition binding to guinea-pig lung membranes
Conditions: negative logarithm of molar concentration, read-out: pIC50 for [3H]LTD4 binding (converted)
Excerpt: It is of importance to investigate the receptor binding properties of leukotriene antagonists in relation to their inhibition of smooth muscle contraction. Receptor binding studies may be performed with guinea-pig lung membranes in a direct competition assay between a leukotriene antagonist and [^3 H]LTD4 for binding to the LTD4 receptor ^10,^11. […] These values indicate that the affinities of the compounds for the LTD4 receptor are very high, also in the presence of albumin.

[1] = presence of 0.1% human serum albumin

IC50 (absence of human serum albumin) [nM]	IC50 [1] [nM]	SMILES
2	6.31	O=C(O)[C@H](O)[C@H](Nc1cccc(/C=C/c2ccc3ccc(Cl)cc3n2)c1)c1ccccc1 (relative stereo) [Example 6, E-(2R,3R;2S,3S)-N-3-[2-(7-chloroquinolyl)-2-ethenyl]-phenyl-3-phenyl isoserine, sodium salt]
2.51	20	O=C(O)[C@H](O)[C@H](Nc1cccc(/C=C/c2ccc3ccccc3n2)c1)c1ccccc1 (relative stereo) [Example 17, E-(2R,3R;2S,3S)-3-phenyl-N-3-[(2-quinolyl)-2-ethenyl]-phenyl isoserine, sodium salt]

— US5576438A, “Isoserine derivatives and their use as leukotriene antagonists” (Leo Pharmaceutical Products Ltd. A/S (L.o slashed.vens …, priority 1992, dated 1996)
